# Measurements as given in ChEMBL document CHEMBL4651402, “Screening of ~5500 FDA-approved drugs and clinical candidates for anti-SARS-CoV-2 activity” (2021).
# Test system: SARS-CoV-2
# Experiment: microbe, parasite or virus in culture
# Settings: Severe acute respiratory syndrome coronavirus 2, Vero C1008, 48 h
compound,measurement,setting,value
O=C(O)CNC(=O)c1nc(Cl)c2ccccc2c1O,IC50,,> 20 µM
same,IC50,read-out: pIC50 (converted),> 20 µM
CCOC(=O)c1ccc(O)cc1 [ETHYLPARABEN],IC50,,> 20 µM
same,IC50,read-out: pIC50 (converted),> 20 µM
CC(=O)O[C@@H]1CCC2C3CCc4cc(O)ccc4C3CCC21C (stereo partly specified),IC50,,> 20 µM
same,IC50,read-out: pIC50 (converted),> 20 µM
CN1CCCCC1c1ccc(-c2cccnc2)nc1 (stereo unspecified),IC50,,> 20 µM
same,IC50,read-out: pIC50 (converted),> 20 µM
NS(=O)(=O)c1cc2c(cc1Cl)NC(CC1CCCC1)NS2(=O)=O (stereo unspecified) [CYCLOPENTHIAZIDE],IC50,,> 20 µM
same,IC50,read-out: pIC50 (converted),> 20 µM
NC(=O)CCCCC1CCSS1 (stereo unspecified) [THIOCTIC ACID AMIDE],IC50,,> 20 µM
same,IC50,read-out: pIC50 (converted),> 20 µM
O=c1[nH]c(=O)n([C@H]2C[C@H](O)[C@@H](CO)O2)cc1F [FLOXURIDINE],IC50,,> 20 µM
same,IC50,read-out: pIC50 (converted),> 20 µM
COc1cccc(Nc2ncnn3ccc(CN4CC[C@@H](N)[C@H](O)C4)c23)c1 [BMS-690514],IC50,,> 20 µM
same,IC50,read-out: pIC50 (converted),> 20 µM
CC1(C)S[C@@H]2[C@H](NC(=O)Cc3ccccc3)C(=O)N2[C@H]1C(=O)O [PENICILLIN G],IC50,,> 20 µM
same,IC50,read-out: pIC50 (converted),> 20 µM
C/N=C(/NC#N)NCCSCc1csc(NC(=N)N)n1 [TIOTIDINE],IC50,,> 20 µM
same,IC50,read-out: pIC50 (converted),> 20 µM
CN1CCC(=C2c3ccccc3CCn3c(C=O)cnc32)CC1 [ALCAFTADINE],IC50,,> 20 µM
same,IC50,read-out: pIC50 (converted),> 20 µM
CCCCC(C)(O)C/C=C/[C@H]1[C@H](O)CC(=O)[C@@H]1CCCCCCC(=O)OC (stereo partly specified) [MISOPROSTOL],IC50,,> 20 µM
same,IC50,read-out: pIC50 (converted),> 20 µM
CCc1occc(=O)c1O [E637],IC50,,> 20 µM
same,IC50,read-out: pIC50 (converted),> 20 µM
CCOc1ncc(S(=O)(=O)N2CCN(CC)CC2)cc1-c1nc2c(CC)n(CCOC)nc2c(=O)[nH]1,IC50,,> 20 µM
same,IC50,read-out: pIC50 (converted),> 20 µM
CC(C)Cc1ccc(C(C)C(=O)O)cc1 (stereo unspecified) [IBUPROFEN],IC50,,> 20 µM
same,IC50,read-out: pIC50 (converted),> 20 µM
Cn1cc(C2=C(c3cn(C4CCN(Cc5ccccn5)CC4)c4ccccc34)C(=O)NC2=O)c2ccccc21 [ENZASTAURIN],IC50,,> 20 µM
same,IC50,read-out: pIC50 (converted),> 20 µM
CCCCCCCCc1ccc(CCC(N)(CO)CO)cc1 [FINGOLIMOD],IC50,,> 20 µM
same,IC50,read-out: pIC50 (converted),> 20 µM
CC(=O)NC[C@H]1CN(c2ccc(N3CCOCC3)c(F)c2)C(=O)O1 [LINEZOLID],IC50,,> 20 µM
same,IC50,read-out: pIC50 (converted),> 20 µM
Cc1cc(N2CCN([C@@H]3CN[C@H](C(=O)N4CCSC4)C3)CC2)n(-c2ccccc2)n1 [TENELIGLIPTIN],IC50,,> 20 µM
same,IC50,read-out: pIC50 (converted),> 20 µM
COc1ccc2c(c1)C[C@@H](C)N(CCc1ccc(N)cc1)CC2,IC50,,> 20 µM
same,IC50,read-out: pIC50 (converted),> 20 µM
Cc1cc(Nc2ncnc3ccc(-c4ccc(CNCCS(C)(=O)=O)o4)cc23)ccc1Oc1ccn2ncnc2c1,IC50,,> 20 µM
same,IC50,read-out: pIC50 (converted),> 20 µM
C[C@@H]1CC[C@@]2(NC1)O[C@H]1C[C@H]3[C@@H]4CC=C5C[C@@H](O)CC[C@]5(C)[C@H]4CC[C@]3(C)[C@H]1[C@@H]2C,IC50,,> 20 µM
same,IC50,read-out: pIC50 (converted),> 20 µM
CC(C)NC[C@H](O)COc1ccc(O)cc1 [PRENALTEROL],IC50,,> 20 µM
same,IC50,read-out: pIC50 (converted),> 20 µM
CCOC(=O)c1cncn1[C@@H](C)c1ccccc1 [S-ETOMIDATE],IC50,,> 20 µM
same,IC50,read-out: pIC50 (converted),> 20 µM
OCCN1CCCCC1C(c1ccccc1)c1ccccc1 (stereo unspecified) [DIFEMETOREX],IC50,,> 20 µM
same,IC50,read-out: pIC50 (converted),> 20 µM
CC(C)NC(=N)NC(=N)Nc1ccc(Cl)cc1 [PROGUANIL],IC50,,> 20 µM
same,IC50,read-out: pIC50 (converted),> 20 µM
OC[C@H]1O[C@H](O)[C@@H](O)[C@@H](O)[C@@H]1O,IC50,,> 20 µM
same,IC50,read-out: pIC50 (converted),> 20 µM
CCO[C@H](COc1ccc(C(F)(F)F)cc1)CSc1ccc(OCC(=O)O)c(C)c1,IC50,,> 20 µM
same,IC50,read-out: pIC50 (converted),> 20 µM
CC(C)[C@H](N)C(=O)OCC(CO)OCn1cnc2c(=O)[nH]c(N)nc21 (stereo partly specified) [VALGANCICLOVIR],IC50,,> 20 µM
same,IC50,read-out: pIC50 (converted),> 20 µM
C/C(=N\N=C(/S)N/N=C(\S)Nc1ccccc1Cl)c1ccccn1,IC50,,> 20 µM
same,IC50,read-out: pIC50 (converted),> 20 µM
C=CCN1CCC[C@H]1CNC(=O)c1cc(CCCF)cc(OC)c1OC [FALLYPRIDE],IC50,,> 20 µM
same,IC50,read-out: pIC50 (converted),> 20 µM
COc1ccc(OC)c(C(O)C(C)N)c1 (stereo unspecified) [METHOXAMINE],IC50,,> 20 µM
same,IC50,read-out: pIC50 (converted),> 20 µM
O=C(O[C@@H]1Cc2c(O)cc(O)cc2O[C@H]1c1cc(O)c(O)c(O)c1)c1cc(O)c(O)c(O)c1 [GALLOCATECHIN GALLATE],IC50,,> 20 µM
same,IC50,read-out: pIC50 (converted),> 20 µM
COc1ccc2c(c1OC)CN1CCc3cc4c(cc3C1C2)OCO4 (stereo unspecified) [TETRAHYDROBERBERINE],IC50,,> 20 µM
same,IC50,read-out: pIC50 (converted),> 20 µM
CC(=O)OC1(c2ccccc2)CCN(CCc2ccccc2)CC1,IC50,,> 20 µM
same,IC50,read-out: pIC50 (converted),> 20 µM
C=CCSCC1Nc2cc(Cl)c(S(N)(=O)=O)cc2S(=O)(=O)N1 (stereo unspecified) [ALTHIAZIDE],IC50,,> 20 µM
same,IC50,read-out: pIC50 (converted),> 20 µM
Oc1ccc2c3c1O[C@H]1[C@@H](O)CC[C@@]4(O)C(C2)N(CC2CCC2)CCC314 (stereo partly specified),IC50,,> 20 µM
same,IC50,read-out: pIC50 (converted),> 20 µM
COc1cc(Cc2cnc(N)nc2N)cc(OC)c1SC [METIOPRIM],IC50,,> 20 µM
same,IC50,read-out: pIC50 (converted),> 20 µM
